# How the values were obtained:
# [1] = molecular target: Cyclin-dependent kinase 5 (Homo sapiens, UniProt Q00535); settings: at 10 µM
# [2] = molecular target: Interferon-induced, double-stranded RNA-activated protein kinase (Homo sapiens) (UniProt P19525); test: Selectivity interaction (KinomeScan (DiscoverX)) EUB0000695a EIF2AK2; settings: at 100 nM
# [3] = molecular target: Myosin-IIIa (Homo sapiens) (UniProt Q8NEV4); test: Selectivity interaction (KinomeScan (DiscoverX)) EUB0001049a MYO3A; settings: at 1 µM
# Chain of Myosin-IIIa (Homo sapiens) (Q8NEV4 whole entry): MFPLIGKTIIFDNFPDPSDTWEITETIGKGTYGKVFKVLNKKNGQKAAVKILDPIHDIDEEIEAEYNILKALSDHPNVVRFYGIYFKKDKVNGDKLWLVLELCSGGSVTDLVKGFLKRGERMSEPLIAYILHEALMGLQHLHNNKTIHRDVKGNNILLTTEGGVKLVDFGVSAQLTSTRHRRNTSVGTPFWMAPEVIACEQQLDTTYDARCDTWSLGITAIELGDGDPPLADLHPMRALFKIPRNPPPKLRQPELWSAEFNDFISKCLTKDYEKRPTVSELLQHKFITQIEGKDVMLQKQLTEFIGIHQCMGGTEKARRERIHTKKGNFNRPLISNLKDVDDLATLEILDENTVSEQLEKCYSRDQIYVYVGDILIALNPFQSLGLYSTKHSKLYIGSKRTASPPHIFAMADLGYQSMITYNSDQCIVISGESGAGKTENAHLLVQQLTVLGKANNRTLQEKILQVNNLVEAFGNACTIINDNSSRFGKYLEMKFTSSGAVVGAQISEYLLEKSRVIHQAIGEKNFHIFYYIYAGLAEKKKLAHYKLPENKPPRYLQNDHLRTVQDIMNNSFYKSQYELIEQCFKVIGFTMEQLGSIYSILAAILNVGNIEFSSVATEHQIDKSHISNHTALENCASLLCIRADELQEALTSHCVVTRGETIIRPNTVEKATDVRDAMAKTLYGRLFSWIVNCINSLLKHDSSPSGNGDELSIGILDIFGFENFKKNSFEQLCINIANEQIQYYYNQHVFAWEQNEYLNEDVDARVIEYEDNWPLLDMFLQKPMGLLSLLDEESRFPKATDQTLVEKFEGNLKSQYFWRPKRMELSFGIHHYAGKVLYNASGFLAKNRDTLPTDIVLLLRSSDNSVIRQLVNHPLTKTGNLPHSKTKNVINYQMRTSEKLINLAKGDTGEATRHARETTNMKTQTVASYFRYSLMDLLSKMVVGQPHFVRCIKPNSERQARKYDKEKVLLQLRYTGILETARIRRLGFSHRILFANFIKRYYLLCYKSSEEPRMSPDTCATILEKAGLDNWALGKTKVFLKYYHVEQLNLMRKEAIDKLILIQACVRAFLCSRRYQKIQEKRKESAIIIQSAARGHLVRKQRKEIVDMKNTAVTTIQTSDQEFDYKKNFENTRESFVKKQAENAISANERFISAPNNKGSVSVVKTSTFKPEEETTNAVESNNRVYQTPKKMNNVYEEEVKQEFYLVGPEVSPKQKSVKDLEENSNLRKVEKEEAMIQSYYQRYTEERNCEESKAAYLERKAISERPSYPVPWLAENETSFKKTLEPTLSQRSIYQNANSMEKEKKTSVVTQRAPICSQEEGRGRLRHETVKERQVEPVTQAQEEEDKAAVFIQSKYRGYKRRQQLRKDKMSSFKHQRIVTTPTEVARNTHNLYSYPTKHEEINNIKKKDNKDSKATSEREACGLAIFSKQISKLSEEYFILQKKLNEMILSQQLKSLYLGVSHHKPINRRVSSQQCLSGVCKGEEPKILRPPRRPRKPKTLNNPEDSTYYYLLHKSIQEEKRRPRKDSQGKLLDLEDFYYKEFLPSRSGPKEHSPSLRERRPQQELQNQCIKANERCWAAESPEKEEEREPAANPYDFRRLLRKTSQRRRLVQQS
# [4] = molecular target: cAMP-dependent protein kinase catalytic subunit beta (Homo sapiens) (UniProt P22694); test: Selectivity interaction (Ambit KINOMEscan and KiNATiv profiling in Jurkat cells) EUB0000090b PRKACB; format: cell-based; settings: at 1 µM
# [5] = molecular target: Ribosomal protein S6 kinase alpha-2 (Homo sapiens) (UniProt Q15349); test: Selectivity interaction (KinomeScan (DiscoverX)) EUB0000655a RPS6KA2; settings: at 10 µM
# Chain of Ribosomal protein S6 kinase alpha-2 (Homo sapiens) (Q15349 whole entry): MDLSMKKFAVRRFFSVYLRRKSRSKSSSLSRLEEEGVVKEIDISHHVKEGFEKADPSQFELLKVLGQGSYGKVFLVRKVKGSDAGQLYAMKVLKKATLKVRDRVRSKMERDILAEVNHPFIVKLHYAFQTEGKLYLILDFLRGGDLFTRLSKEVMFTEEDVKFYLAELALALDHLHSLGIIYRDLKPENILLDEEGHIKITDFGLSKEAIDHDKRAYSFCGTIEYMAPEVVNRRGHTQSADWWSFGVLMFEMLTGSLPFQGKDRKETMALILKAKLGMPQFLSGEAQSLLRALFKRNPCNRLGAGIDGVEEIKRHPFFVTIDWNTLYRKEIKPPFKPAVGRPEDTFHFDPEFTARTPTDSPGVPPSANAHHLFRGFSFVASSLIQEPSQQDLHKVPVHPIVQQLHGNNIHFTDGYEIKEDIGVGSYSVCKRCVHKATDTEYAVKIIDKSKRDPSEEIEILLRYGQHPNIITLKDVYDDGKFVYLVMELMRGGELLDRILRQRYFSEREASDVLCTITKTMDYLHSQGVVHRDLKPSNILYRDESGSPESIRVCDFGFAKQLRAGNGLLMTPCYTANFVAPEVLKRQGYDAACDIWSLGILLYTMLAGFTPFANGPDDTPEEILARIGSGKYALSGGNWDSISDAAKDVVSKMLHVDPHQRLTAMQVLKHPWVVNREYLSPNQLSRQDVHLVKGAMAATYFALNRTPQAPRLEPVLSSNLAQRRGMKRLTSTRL
# [6] = molecular target: T1, Mitogen-activated protein kinase kinase kinase kinase 2 (Homo sapiens) (UniProt Q12851); test: Selectivity interaction (Kinase panel (KiNativ target engagement assay in Jurkat cells)) EUB0001635a MAP4K2; format: cell-based; settings: Selectivity number of off-targets 0.0, Selectivity number of targets 233.0, Source Knowledge https://www.sciencedirect.com/science/article/pii/S2451945619300674?via%3Dihub, at 1 µM
# T1 sequence (whole entry): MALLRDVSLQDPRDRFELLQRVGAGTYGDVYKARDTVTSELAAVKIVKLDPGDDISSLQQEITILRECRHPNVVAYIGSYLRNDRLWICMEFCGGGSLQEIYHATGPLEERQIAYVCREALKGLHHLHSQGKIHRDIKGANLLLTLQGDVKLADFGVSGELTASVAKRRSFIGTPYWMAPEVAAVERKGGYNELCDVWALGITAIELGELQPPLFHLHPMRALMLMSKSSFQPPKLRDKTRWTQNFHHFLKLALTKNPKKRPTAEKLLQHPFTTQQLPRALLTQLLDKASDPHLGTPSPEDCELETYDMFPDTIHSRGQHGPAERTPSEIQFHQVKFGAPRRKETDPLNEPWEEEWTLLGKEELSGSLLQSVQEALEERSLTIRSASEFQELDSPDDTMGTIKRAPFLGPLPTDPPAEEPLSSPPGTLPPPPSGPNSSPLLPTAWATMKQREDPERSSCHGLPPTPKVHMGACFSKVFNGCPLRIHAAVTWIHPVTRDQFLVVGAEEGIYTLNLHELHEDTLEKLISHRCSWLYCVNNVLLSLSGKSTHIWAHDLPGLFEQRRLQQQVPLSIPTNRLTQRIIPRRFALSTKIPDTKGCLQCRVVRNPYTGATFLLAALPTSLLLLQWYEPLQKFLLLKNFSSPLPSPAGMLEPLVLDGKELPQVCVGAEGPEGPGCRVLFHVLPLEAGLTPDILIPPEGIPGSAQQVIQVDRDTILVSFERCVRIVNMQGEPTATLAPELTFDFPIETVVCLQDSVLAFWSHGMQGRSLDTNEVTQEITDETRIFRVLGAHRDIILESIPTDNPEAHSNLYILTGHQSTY
# [7] = molecular target: T2, Mitogen-activated protein kinase kinase kinase 15 (Homo sapiens) (UniProt Q6ZN16); test: Selectivity interaction (Kinase panel (KiNativ target engagement assay in Jurkat cells)) EUB0001635a MAP3K15; format: cell-based; settings: at 1 µM
# T2 sequence (whole entry): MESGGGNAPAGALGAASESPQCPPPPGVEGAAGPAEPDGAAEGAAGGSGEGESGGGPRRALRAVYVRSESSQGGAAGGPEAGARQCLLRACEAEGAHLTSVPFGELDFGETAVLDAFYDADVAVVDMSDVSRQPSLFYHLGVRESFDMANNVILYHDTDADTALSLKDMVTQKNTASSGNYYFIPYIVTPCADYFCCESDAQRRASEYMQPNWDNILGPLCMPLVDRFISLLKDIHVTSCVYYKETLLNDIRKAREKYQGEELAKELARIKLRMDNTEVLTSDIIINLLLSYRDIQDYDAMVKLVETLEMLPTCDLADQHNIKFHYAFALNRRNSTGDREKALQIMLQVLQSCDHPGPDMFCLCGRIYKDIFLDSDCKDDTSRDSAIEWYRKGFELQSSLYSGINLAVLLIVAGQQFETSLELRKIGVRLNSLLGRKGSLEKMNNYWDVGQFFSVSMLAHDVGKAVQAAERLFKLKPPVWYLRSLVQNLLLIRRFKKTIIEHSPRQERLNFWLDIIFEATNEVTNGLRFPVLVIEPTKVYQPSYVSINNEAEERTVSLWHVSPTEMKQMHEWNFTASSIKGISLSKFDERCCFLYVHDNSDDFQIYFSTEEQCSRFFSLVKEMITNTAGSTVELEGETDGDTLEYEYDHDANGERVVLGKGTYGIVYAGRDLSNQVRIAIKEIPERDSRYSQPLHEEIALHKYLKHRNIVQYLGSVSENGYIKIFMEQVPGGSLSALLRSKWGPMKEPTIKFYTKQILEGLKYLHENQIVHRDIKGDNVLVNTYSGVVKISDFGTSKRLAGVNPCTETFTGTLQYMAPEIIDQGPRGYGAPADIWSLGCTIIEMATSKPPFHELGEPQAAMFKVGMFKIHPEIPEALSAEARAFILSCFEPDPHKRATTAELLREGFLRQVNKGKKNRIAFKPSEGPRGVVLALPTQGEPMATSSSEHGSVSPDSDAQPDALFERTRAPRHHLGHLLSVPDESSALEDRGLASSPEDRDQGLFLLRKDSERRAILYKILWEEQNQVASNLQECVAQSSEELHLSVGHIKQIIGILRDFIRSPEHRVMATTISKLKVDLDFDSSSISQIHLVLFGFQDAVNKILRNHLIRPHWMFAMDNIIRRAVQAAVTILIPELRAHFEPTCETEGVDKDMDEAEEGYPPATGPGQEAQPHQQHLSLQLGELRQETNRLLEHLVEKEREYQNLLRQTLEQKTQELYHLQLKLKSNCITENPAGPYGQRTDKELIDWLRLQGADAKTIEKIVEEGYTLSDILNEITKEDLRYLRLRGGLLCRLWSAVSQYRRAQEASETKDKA
# [8] = molecular target: Platelet-derived growth factor receptor alpha (Homo sapiens, UniProt P16234); test: (§1) Selectivity interaction (Kinase panel (Carna Biosciences)) EUB0001542aTs PDGFRA; settings: at 1 µM
# Chain of Platelet-derived growth factor receptor alpha (P16234 whole entry): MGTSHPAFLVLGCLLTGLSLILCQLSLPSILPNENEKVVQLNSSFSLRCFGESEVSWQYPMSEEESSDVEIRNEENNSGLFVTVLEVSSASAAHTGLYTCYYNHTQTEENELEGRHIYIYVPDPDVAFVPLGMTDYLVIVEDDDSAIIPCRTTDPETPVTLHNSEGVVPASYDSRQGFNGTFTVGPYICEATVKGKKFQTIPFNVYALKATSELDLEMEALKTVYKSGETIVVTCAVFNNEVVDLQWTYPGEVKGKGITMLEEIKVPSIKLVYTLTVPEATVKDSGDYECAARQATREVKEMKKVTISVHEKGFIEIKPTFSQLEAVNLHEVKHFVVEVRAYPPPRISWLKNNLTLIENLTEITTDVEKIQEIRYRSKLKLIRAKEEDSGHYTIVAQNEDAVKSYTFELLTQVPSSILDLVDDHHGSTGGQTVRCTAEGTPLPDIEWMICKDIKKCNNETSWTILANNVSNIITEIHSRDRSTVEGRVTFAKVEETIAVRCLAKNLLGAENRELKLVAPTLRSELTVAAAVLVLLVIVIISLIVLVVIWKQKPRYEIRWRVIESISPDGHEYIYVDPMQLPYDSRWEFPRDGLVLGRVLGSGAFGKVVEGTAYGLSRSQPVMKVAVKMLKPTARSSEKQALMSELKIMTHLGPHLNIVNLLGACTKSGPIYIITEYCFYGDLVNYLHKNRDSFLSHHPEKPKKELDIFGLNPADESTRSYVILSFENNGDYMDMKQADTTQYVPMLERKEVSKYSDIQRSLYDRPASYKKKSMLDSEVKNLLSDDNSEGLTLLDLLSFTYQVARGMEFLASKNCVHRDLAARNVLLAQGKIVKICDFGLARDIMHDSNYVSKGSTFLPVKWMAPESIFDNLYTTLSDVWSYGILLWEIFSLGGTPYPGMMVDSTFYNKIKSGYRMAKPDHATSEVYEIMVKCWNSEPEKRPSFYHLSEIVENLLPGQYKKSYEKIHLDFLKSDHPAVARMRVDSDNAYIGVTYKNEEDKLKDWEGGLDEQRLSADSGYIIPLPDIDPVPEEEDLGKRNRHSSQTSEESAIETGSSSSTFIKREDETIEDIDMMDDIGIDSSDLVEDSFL
# [9] = tested on: Platelet-derived growth factor receptor alpha (Homo sapiens), P16234 [T674I]; test: as §1; settings: at 1 µM
# Chain of Platelet-derived growth factor receptor alpha (Homo sapiens), P16234 [T674I] (P16234 whole entry T674I): as the sequence (P16234 whole entry) above, with T674I counted along it
# [10] = tested on: Platelet-derived growth factor receptor alpha (Homo sapiens), P16234 [V561D]; test: as §1; settings: at 1 µM
# Chain of Platelet-derived growth factor receptor alpha (Homo sapiens), P16234 [V561D] (P16234 whole entry V561D): as the sequence (P16234 whole entry) above, with V561D counted along it
# [11] = molecular target: Tyrosine-protein kinase Lyn (Homo sapiens, UniProt P07948); test: Selectivity interaction (KinomeScan (DiscoverX)) EUB0000618a LYN; settings: at 10 µM
# Chain of Tyrosine-protein kinase Lyn (P07948 2-512 limits assumed): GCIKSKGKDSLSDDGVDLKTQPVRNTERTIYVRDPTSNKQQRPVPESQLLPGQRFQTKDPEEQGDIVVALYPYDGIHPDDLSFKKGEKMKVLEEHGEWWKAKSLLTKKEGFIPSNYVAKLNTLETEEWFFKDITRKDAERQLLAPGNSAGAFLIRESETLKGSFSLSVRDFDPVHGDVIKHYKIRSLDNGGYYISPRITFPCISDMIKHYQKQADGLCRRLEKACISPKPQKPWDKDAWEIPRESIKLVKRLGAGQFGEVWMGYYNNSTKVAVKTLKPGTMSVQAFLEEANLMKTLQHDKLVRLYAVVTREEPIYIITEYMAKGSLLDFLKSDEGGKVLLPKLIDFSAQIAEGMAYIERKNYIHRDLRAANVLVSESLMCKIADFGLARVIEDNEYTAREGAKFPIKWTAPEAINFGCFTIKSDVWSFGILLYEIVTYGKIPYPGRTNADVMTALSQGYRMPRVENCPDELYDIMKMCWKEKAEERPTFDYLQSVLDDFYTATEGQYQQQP
# Chain of Interferon-induced, double-stranded RNA-activated protein kinase (Homo sapiens) (P19525 whole entry): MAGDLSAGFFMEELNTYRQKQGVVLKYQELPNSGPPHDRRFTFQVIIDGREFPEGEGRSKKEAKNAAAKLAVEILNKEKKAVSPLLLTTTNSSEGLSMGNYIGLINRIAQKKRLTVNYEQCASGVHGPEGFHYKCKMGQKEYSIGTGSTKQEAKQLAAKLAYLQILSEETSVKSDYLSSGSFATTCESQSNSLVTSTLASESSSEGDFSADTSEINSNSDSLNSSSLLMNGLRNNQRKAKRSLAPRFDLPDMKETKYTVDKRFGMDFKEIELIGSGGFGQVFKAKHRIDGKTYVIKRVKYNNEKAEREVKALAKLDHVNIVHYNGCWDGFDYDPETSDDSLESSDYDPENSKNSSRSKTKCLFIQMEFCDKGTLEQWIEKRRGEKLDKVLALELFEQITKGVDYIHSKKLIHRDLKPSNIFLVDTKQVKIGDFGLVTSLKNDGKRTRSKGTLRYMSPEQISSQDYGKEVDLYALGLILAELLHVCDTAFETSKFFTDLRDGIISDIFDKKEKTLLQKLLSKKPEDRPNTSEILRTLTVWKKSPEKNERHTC
# Chain of Cyclin-dependent kinase 5 (Q00535 whole entry, looked up): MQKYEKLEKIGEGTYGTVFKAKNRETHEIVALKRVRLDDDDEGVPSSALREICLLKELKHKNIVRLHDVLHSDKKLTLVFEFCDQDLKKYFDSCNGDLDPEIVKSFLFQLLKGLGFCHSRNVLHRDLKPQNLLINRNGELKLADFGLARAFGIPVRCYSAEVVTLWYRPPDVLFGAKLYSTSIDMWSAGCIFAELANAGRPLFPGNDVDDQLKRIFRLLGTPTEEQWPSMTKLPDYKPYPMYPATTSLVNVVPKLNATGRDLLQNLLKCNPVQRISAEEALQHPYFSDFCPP
structure (smiles),measurement,setting,value
CCN(CC)CCCCNc1ncc2cc(-c3cc(OC)cc(OC)c3)c(NC(=O)NC(C)(C)C)nc2n1,% of control,[1],100%
Cc1cc(F)c(C(=O)Nc2cccc(-c3nncn3C(C)C)n2)cc1-n1cnc(C2CC2)c1,% of control,[2],100%
COc1cc(Nc2nc(C)cc(-c3cnn4nc(OC)ccc34)n2)cc(C(F)(F)F)c1,% of control,[3],87%
CN(C)C/C=C/C(=O)Nc1ccc(C(=O)N2CCCC(Nc3ncc(Cl)c(-c4c[nH]c5ccccc45)n3)C2)cc1 (stereo unspecified),% of control,[4],90%
CN(C)CCOc1ccc(-c2nc(-c3ccncc3)c(-c3ccc4c(c3)CC/C4=N\O)[nH]2)cc1,% of control,[5],61%
C=CC(=O)Nc1ccc(C(=O)Nc2[nH]nc3c2CN(C(=O)N[C@H](CN(C)C)c2ccccc2)C3(C)C)cc1,% of engagement,[6],-14.9%
same,% of engagement,[7],4.9%
Cn1cc(Nc2nccc(N3CC4CCC(C3)N4C(=O)[C@@H]3CC3(F)F)n2)cn1,% of inhibition,[8],70%
same,% of inhibition,[9],78%
same,% of inhibition,[10],60%
O[C@H]1CC[C@H](Nc2ncc3nc(Nc4c(F)cc(F)cc4F)n([C@H]4CCOC4)c3n2)CC1,% of control,[11],98%

# From ChEMBL document CHEMBL5465560, “Selectivity Literature for EUbOPEN Chemogenomic Library” (2024)
